Source: patent US20260015339A1, “CALIX[4]ARENES WITH HIGH ANTICANCER ACTIVITY” (UNIVERSITE GRENOBLE ALPES, priority 2023, published 2026)
pIC50: −log10 of the molar value.

Tests used:
[1] = test system: Non-malignant HaCaT cells; assay: MTS cytotoxicity assay on HaCaT; assay type: cell-based; conditions: Homo sapiens, 72 hours of treatment
Procedure: Non-malignant HaCaT cells were seeded in 96-well plates together with the calix[4]arene of the formula (2). Cells were grown in RPMI-1640 supplemented with GlutaMAX™ (Gibco™) and fetal calf serum (FCS, 20%) and treated with a broad range of concentrations of the calix[4]arene of the formula (2). After 72 hours of treatment, the cytotoxicity was measured by means of the IC50 value, using the kit “CellTiter 96R AQuous One Solution Cell Proliferation Assay (MTS)” from Promega™. Following 30 minutes of incubation with the MTS reagent, the endpoint measurements were done in triplicate at 485 nm, using a fluorescence plate reader.

[2] = test system: H322 lung carcinoma cells; assay: MTS cytotoxicity assay, combination with CuCl2, H322; conditions: NCI-H322, 72 h, read-out: percentage of cell viability
Procedure: H322 lung carcinoma cells were seeded in 96-well plates together with the calix[4]arene of the formula (2) and CuCl2. Cells were grown in RPMI-1640 supplemented with GlutaMAX™ (Gibco™) and fetal calf serum (FCS, 10%) treated with a broad range of concentrations of the calix[4]arene of the formula (2) or/and CuCl2 from Merck. After 72 hours of treatment, the cytotoxicity was measured by means of the IC50 value, using the kit “CellTiter 96R AQuous One Solution Cell Proliferation Assay (MTS)” from Promega™ Following 30 minutes of incubation with the MTS reagent, the endpoint measurements were done in triplicate at 485 nm, using a fluorescence plate reader.

[3] = test system: PC9 human lung cancer cells; assay: MTS cytotoxicity assay on PC9; assay type: cell-based; conditions: PC9, 72 hours of treatment
Procedure: PC9 human lung cancer cells were seeded in 96-well plates together with the calix[4]arene of the formula (2). Cells were grown in RPMI-1640 supplemented with GlutaMAX™ (Gibco™) and fetal calf serum (FCS, 10%) and treated with a broad range of concentrations of the calix[4]arene of the formula (2). After 72 hours of treatment, the cytotoxicity was measured by means of the IC50 value, using the kit “CellTiter 96R AQuous One Solution Cell Proliferation Assay (MTS)” from Promega™. Following 30 minutes of incubation with the MTS reagent, the endpoint measurements were done in triplicate at 485 nm, using a fluorescence plate reader.
PC9 human lung cancer cells were seeded in 96-well plates together with the 2nd comparative example of the formula (XI). Cells were grown in RPMI-1640 supplemented with GlutaMAX™ (Gibco™) and fetal calf serum (FCS, 10%) and treated with a broad range of concentrations of the compound of the 2nd comparative example of the formula (XI). After 72 hours of treatment, the cytotoxicity was measured by means of the IC50 value, using the kit “CellTiter 96R AQuous One Solution Cell Proliferation Assay (MTS)” from Promega™. Following 30 minutes of incubation with the MTS reagent, the endpoint measurements were done in triplicate at 485 nm, using a fluorescence plate reader. […]

[4] = test system: Non-malignant MRC5-SVII cells; assay: MTS cytotoxicity assay on MRC5-SVII; assay type: cell-based; conditions: 72 hours of treatment
Procedure: Cells were grown in Minimal Essential Medium—Non Essential Amino Acids (MEM NEAA) culture medium from Gibco™, supplemented with sodium pyruvate ([…]), and fetal calf serum (FCS, 10%) and treated with a broad range of concentrations of the 2nd comparative example of the formula (XI).

[5] = Ag^+ transport into liposomes with encapsulated BCS; conditions: after 100 s, silver gradient of 50 μM, 1:1000 transporter to lipid ratio, added from DMSO
Procedure: Liposomes with BCS encapsulated were prepared as described above in the part entitled “II—C—1—Determination of the transport of Cu^+by the examples of calix[4]arenes” and measurements were performed as described in this part.
A Ag^+ solution was prepared by dissolving AgNO3 in a phosphate buffer at 3.05 mM concentration. After the first 30 seconds of the experiment, 50 μL of the Ag^+ solution was added to 3 mL of liposomes, resulting in a silver gradient of 50 μM. The fluorescence level was monitored for 600 seconds after the addition of the copper solution.
When a solution of DMSO with the calix[4]arene of the formula (2) was added to the liposomes (5 μL, to obtain a 1:1000 transport to lipid ratio) the decrease in fluorescence intensity of BCS was much faster (F/F0=0.55 after 100 s) compared to when DMSO without calix[4]arene of the formula (2) (5 μL) was added (F/F0=0.85 after 100 s).

[6] = test system: PC9 human lung cancer cell line; assay: Inhibition of PC9 cell proliferation (cell count); assay type: cell-based; conditions: 3 μM, until 72 hours
Procedure: The inhibition of a PC9 human lung cancer cell line proliferation by the calix[4]arene of the formulation (2) was determined by exposure of said PC9 human lung cancer cell line to a concentration of 3 μM of the compound of the formula (2) until 72 hours. The absolute number of cells were counted in the treated and untreated conditions before treatment (N0) and after 72 hours (Nt).
The FIG. 2 is a graph showing: • the profile of the proliferation index Nt/N0 of the PC9 cells after exposure with the calix[4]arene of the formula (2) with respect to the time (i.e. the curve entitled “calix[4]arene (2)”), • the profile of the proliferation index Nt/N0 of the PC9 cells without any exposure with the calix[4]arene of the formula (2) with respect to the time (i.e. the curve entitled “untreated”).

[7] = test system: Candida albicans yeast cells; assay: Minimal inhibitory concentration, yeast growth in 96 well plate; assay type: cell-based; conditions: in presence of 100 μM CuSO4, read-out: minimal inhibitory concentrations values
Procedure: The efficiency of a compound of interest on a bacterial strain is evaluated by measuring its minimal inhibitory concentration (hereafter abbreviated “MIC”). MICs are measured by following the bacterial growth in a 96 wells plate exposed to a range of concentrations of the compound of interest.
96 Well plates were filled with 20 μL of 1 mM CuSO4 solution, then 160 μL of growth media was added. Finally, 20 μL of DMSO solutions containing a range of concentrations of the tested calix[4]arene of the formula (2) was added. […] For each condition three wells were used. The top and bottom rows were used as control, the top row only contained Lysogeny broth and the bottom one contained the growth media, DMSO and CuSO4. The plates were placed in the incubator for 16 to 24 hours. The absorbance of each well was measured at 600 nm with a multiplate reader (Fluostar from Optima).
Additionally, the same protocol was repeated with Candida albican yeast cells. Instead of Lysogeny broth, Yeast Extract-Peptone-Dextrose (Bacteriological peptone, 20 g/L; Glucose, 20 g/L; Yeast extract, 10 g/L) was used as growing medium. […]

[8] = test system: A549 human lung cancer cells; assay: MTS cytotoxicity assay, combination with CuCl2, A549; conditions: Homo sapiens, A549, 72 h, read-out: percentage of cell viability
Procedure: A549 human lung cancer cells were seeded in 96-well plates together with the calix[4]arene of the formula (2) and CuCl2. Cells were grown in RPMI-1640 supplemented with GlutaMAX™ (Gibco™) and fetal calf serum (FCS, 10%) treated with a broad range of concentrations of the calix[4]arene of the formula (2) or/and CuCl2 from Merck. After 72 hours of treatment, the cytotoxicity was measured by means of the IC50 value, using the kit “CellTiter 96R AQuous One Solution Cell Proliferation Assay (MTS)” from Promega™. Following 30 minutes of incubation with the MTS reagent, the endpoint measurements were done in triplicate at 485 nm, using a fluorescence plate reader.

Compound: CCCOc1c2cccc1Cc1cccc(c1OCc1nccn1C)Cc1cccc(c1OCCC)Cc1cccc(c1OCc1nccn1C)C2 [(2)]
- pIC50 [1]: 5.98
- viability at 0.1 µM [2]: 96.5%
- viability at 0.5 µM [2]: 94.1%
- viability at 1 µM [2]: 87%
- viability at 1.5 µM [2]: 62.6%
- pIC50 [3]: 5.69
- pIC50 [4]: 5.99
- F/F0 (fluorescence intensity of BCS) [5]: 0.55
- proliferation index Nt/N0 (FIG. 2) [6]: clearly inhibits the proliferation
- MIC [7]: 0.8 µM
- viability at 0.1 µM [8]: 102%
- viability at 0.5 µM [8]: 96.4%
- viability at 1 µM [8]: 79.9%
- viability at 1.5 µM [8]: 52.2%
